Experimental data as given in US8293979B2, “Weed controller metabolism proteins, genes, thereof and use of the same” (Sumitomo Chemical Company, Limited, priority 2001, dated 2012).

Legend:
[1] = test system: leaf pieces of the tobacco to which the present invention DNA (A1)S has been introduced; test: Evaluation of the resistance utilizing a leaf piece of the present invention DNA (A1)S transgenic tobacco; assay type: cell-based; details: 1 point continuously grew, 0.5 halfly withered, 0 turned white and withered
Experimental: Next, other than culturing overnight the transgenic agrobacterium bearing the above plasmid at 30° C. in LB liquid medium containing 25 mg/L kanamycin, said agrobacterium were utilized to introduce genes into tobacco according to the method described in Example 19. There were obtained, respectively, transgenic tobaccos which have incorporated the T-DNA region of pBI-NdG6-rSt-657soy or pBI-NdG6-rSt12-657soy.
Leaves were taken from 35 transgenic tobaccos obtained in Example 47(9). Each leaf was divided into pieces in which each piece was 5 to 7 mm wide. Leaf pieces were planted onto MS agar medium containing 0, 0.05, 0.1 or 0.2 mg/L of compound (II) and cultured in the light at room temperature. On the 11th day of culturing, the herbicidal damage of each of the leaf pieces was observed. Further, leaf pieces were planted onto MS agar mediums containing 0, 0.01, 0.02, 0.05 or 0.1 mg/L of compound (XII) and cultured in the light at room temperature. On the 7th day of culturing, the herbicidal damage of each of the leaf pieces was observed. […] An average score for each group was determined by scoring 1 point to a leaf piece that continuously grew, 0.5 points to a halfly withered leaf piece in which chemical damage was observed, and 0 points to a leaf piece which turned white and had withered. […]

[2] = test system: present invention protein (A17); test: Metabolism of compounds by the present invention protein (A17), reaction solution, HPLC; assay type: in vitro ADME, Streptomyces griseus ATCC 10137; details: 12.5 ppm of compound, components A, B, C, 20 μl supernatant fraction of Example 51(2), 30° C. for 10 minutes
[3] = test system: present invention protein (A25); test: Metabolism of compounds by the present invention protein (A25), reaction solution, HPLC; assay type: in vitro ADME, Streptomyces steffisburgensis IFO 13446T; details: 12.5 ppm of compound, components A, B, C, 20 μl supernatant fraction of Example 67(2), 30° C. for 10 minutes
[4] = test system: present invention protein (A23); test: Metabolism of compounds by the present invention protein (A23), reaction solution, HPLC; assay type: in vitro ADME, Streptomyces roseorubens IFO 13682T; details: 12.5 ppm of compound, components A, B, C, 20 μl supernatant fraction of Example 63(2), 30° C. for 10 minutes
[5] = test system: present invention protein (A12); test: Metabolism of compounds by the present invention protein (A12), reaction solution, HPLC; assay type: in vitro ADME, Streptomyces tsusimaensis IFO 13782; details: 5 ppm of compound, components A, B, C, 20 μl supernatant fraction of Example 34(2), 30° C. for 10 minutes
[6] = target: T1, present protein (A10) (Streptomyces griseolus, UniProt P18326); assay type: in vitro ADME, Streptomyces griseolus ATCC 11796; details: 5 ppm of compound, components A, B, C, 20 μl supernatant fraction of Example 10(2), 30° C. for 10 minutes, HPLC
T1 construct: made in house; host or cells: E. coli JM109 carrying pKSN11796 or pKSN11796F; 150,000 x g supernatant (crude extract)
T1 sequence (P18326 whole entry H308Q): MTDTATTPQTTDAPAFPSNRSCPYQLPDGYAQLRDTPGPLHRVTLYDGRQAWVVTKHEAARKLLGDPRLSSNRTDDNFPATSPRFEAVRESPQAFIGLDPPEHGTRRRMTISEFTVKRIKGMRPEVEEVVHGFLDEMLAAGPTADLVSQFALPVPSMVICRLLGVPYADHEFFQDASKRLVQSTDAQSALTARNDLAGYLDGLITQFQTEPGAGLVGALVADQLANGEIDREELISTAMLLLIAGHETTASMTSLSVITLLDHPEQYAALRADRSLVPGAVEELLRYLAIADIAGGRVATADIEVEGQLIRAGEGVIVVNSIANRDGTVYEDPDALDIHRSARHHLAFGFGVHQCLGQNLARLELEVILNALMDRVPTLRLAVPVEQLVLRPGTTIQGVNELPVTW

[7] = test system: present invention protein (A21); test: Metabolism of compounds by the present invention protein (A21), reaction solution, HPLC; assay type: in vitro ADME, Streptomyces misawanensis IFO 13855T; details: 12.5 ppm of compound, components A, B, C, 20 μl supernatant fraction of Example 59(2), 30° C. for 10 minutes
[8] = test system: present invention protein (A14); test: Metabolism of compounds by the present invention protein (A14), reaction solution, HPLC; assay type: in vitro ADME, Streptomyces glomerochromogenes IFO 13673t; details: 5 ppm of compound, components A, B, C, 20 μl supernatant fraction of Example 38(2), 30° C. for 10 minutes
[9] = test system: present invention protein (A18); test: Metabolism of compounds by the present invention protein (A18), reaction solution, HPLC; assay type: in vitro ADME, Streptomyces achromogenes IFO 12735; details: 12.5 ppm of compound, components A, B, C, 20 μl supernatant fraction of Example 53(2), 30° C. for 10 minutes

SMILES	average score of leaf pieces compared with the wild type tobacco ([1]; MS agar medium containing 0, 0.05, 0.1 or 0.2 mg/L of compound (II), 11th day)	concentration of the compound detected from metabolism solution (A17) compared to control solution (A17) [2]	concentration of the compound detected from metabolism solution (A25) compared to control solution (A25) [3]	concentration of the compound detected from metabolism solution (A23) compared to control solution (A23) [4]	average score of leaf pieces compared with the wild type tobacco ([1]; MS agar mediums containing 0, 0.01, 0.02, 0.05 or 0.1 mg/L of compound (XII), 7th day)	concentration of the compound detected from metabolism solution (A12) compared to control solution (A12) [5]	concentration of the compound detected from metabolism solution (A10) compared to control solution (A10) [6]	concentration of the compound detected from metabolism solution (A21) compared to control solution (A21) [7]	concentration of the compound detected from metabolism solution (A14) compared to control solution (A14) [8]	concentration of the compound detected from metabolism solution (A18) compared to control solution (A18) [9]
C[C@@H](Oc1cc(-n2c(=O)cc(C(F)(F)F)n(C)c2=O)c(F)cc1Cl)C(=O)O [compound (II)]	higher	–	–	–	–	–	–	–	–	–
Cn1c(C(F)(F)F)cc(=O)n(-c2cc(Oc3cccnc3OCC(=O)O)c(Cl)cc2F)c1=O [compound (XII)]	–	lower	lower	lower	higher	lower	lower	lower	lower	lower
Cn1c(C(F)(F)F)cc(=O)n(-c2cc(Oc3ccccc3OCC(=O)O)c(Cl)cc2F)c1=O [compound (XIII)]	–	lower	lower	lower	–	lower	lower	lower	lower	lower
